± gives the expanded uncertainty stated by the source.
Conditions: Liquid, Ebulliometric method (Recirculating still)

Structure (SMILES): O=C1CCCO1 [γ-butyrolactone]
- vapor or sublimation pressure (420.11 K): 20 ± 0.6 kPa
- vapor or sublimation pressure (432.89 K): 30 ± 0.6 kPa
- vapor or sublimation pressure (442.63 K): 40 ± 0.6 kPa

Structure (SMILES): O=C1CCC(=O)O1 [succinic anhydride]
- vapor or sublimation pressure (475.01 K): 20 ± 0.6 kPa
- vapor or sublimation pressure (488.81 K): 30 ± 0.6 kPa
- vapor or sublimation pressure (499.14 K): 40 ± 0.6 kPa

From the NIST ThermoML archive (doi:10.1021/acs.jced.7b00008)
